# Reference: US20190289849A1, “Novel Plant Growth Regulators and Methods of Using Same” (Duke University, priority 2016, published 2019)
# Entries after “also recorded” stand apart in the source; their conditions may differ.
# Columns and labels:
# Arabidopsis = test: High concentration (10 mM) apocarotenoid effects on plant growth; format: in vivo; conditions: for herbicidal effect when sprayed on plants / method of lethality (phenotype): 10 mM per FIG. 11
# Procedure: FIG. 10 illustrates the effect of high doses of β-cyclocitral and DHAD on root growth. A) The effect of adding small volumes of 10 mM apocarotenoids daily to either the shoots, root tip, or the middle of the root. B) A confocal image of a healthy root stained with propidium iodide, which marks dead cells. C) A root treated with 10 mM β-cyclocitral applied to the tip of the root.
# FIG. 11 illustrates the effect of 10 mM apocarotenoids on plant development. A) The percent change in lateral root capacity, normalized to control plants. Abbreviations: dihydro-β-ionone (DHβI), dimethyl-β-cyclocitral (DMβC). β-cyclocitral (β-cyc), pseudoionone (PI), and dihydroactinidiolide (DHAD). B) Confocal image of a control root stained with propidium iodide. C) Image of a root treated with safranal. D) Images of leaves form a control plant. E) Images of leaves from a plant treated with pseudoionone.
# At high concentrations (10 mM) of β-cyclocitral or DHAD, root length, shoot mass, and lateral root growth were inhibited. […] In one embodiment, safranal may be detrimental to Arabidopsis at concentrations as low as 500 μM.
# Arabidopsis thaliana = test: Lateral root capacity (emerged lateral roots after removal of the primary root apical meristem); format: in vivo; conditions: for lateral root capacity / branching in combination with D15 (screen): 30 μM D15 plus apocarotenoid, normalized to D15 treatment; for rescue of D15 inhibition of lateral root branching: D15-treated plants, apocarotenoid concentration varied for maximum rescue
# Heinz tomatoes = test: Tomato primary and lateral root growth; format: in vivo
# Procedure: Heinz tomatoes were used for all tomato experiments. Seeds were sterilized using 40% liquid bleach for 30 min, then plated on 1% MS media in 120×120×17 mm square petri dishes. Seeds were kept in the dark at room temperature for 3 days, and then exposed to 100-130 μmol/(m^2s^1) illumination and grown vertically under long-day conditions at 22° C. For treating tomatoes, β-cyclocitral, norflurazone, and D15 were added directly to the media, at the concentrations described in the figures. Norflurazone was diluted to a final concentration of 1 μM in media. Tomato phenotypes were analyzed at 6 das. To measure lateral root capacity, the primary root apical meristem of each seedling was sterilely excised at 7 days. The plants were given 3 days to grow out lateral roots, and then each emerged lateral root was counted using a dissection microscope, as described previously (Van Norman et al., Proceedings of the National Academy of Sciences of the United States of America, 2014. 111(13): p. […]-[…]). Luciferase activity was measured as previously described, using exposure times of 7 min (Moreno-Risueno, M. A., et al., Science, 2010. 329(5997): p. 1306-1311). WOX5^+ and EN7^+ primordia were counted using a stereo zoom microscope (Zeiss). Lateral and primary root lengths for Arabidopsis thaliana and tomato were measured using ImageJ (National Institutes of Health) software. 3D images of rice root architecture were captured using a 360° revolving platform and these images were analyzed using GiA Roots (www.giaroots.org), as described previously by Topp (2013). Primary root lengths were determined by dissecting the root and measuring the length with a ruler. Shoot mass was measured after removing the shoots and drying them for 10 days at 60° C.
# lateral root primordia = test: Lateral root primordia counts with WOX5 (stage 1) and EN7 (stage 3) markers, and primordia emergence; format: in vivo, Arabidopsis thaliana
# Procedure: All seeds were in the Columbia-0 background. Seeds were sterilized with chlorine gas, incubated in 4° C. water for 2 days, and plated on 1% (wt/vol) Murashige and Skoog (1% MS) media with 1% agar. They were exposed to 100-130 μmol/(m^2s^1) illumination and grown vertically under long-day conditions at 22° C. Plants were analyzed at 7 days after stratification (das), unless noted otherwise. D15-treated media was made using D15 (N-(4-fluorobenzyl)-methoxycinnamic hydroxamic acid) synthesized by LeadGen Labs, LLC solubilized in DMSO. 100 mM D15 stock solution was diluted directly into 1% MS media for final concentrations ranging from 1 μM to 100 μM. For initial experiments testing the ability of apocarotenoids to rescue D15, plants were seeded on 1% MS media containing 30 μM D15 and 100 nM apocarotenoid (diluted from 1 mM stock solutions dissolved in DMSO). For subsequent experiments characterizing the effect of β-cyclocitral, plants were exposed to volatile analytical grade β-cyclocitral (≥97%, Sigma Aldrich) using 100×15 mm partitioned petri dishes. One side of the partition was filled with 25 μM β-cyclocitral diluted in 1% MS media. Seeds were plated on the other side of the partition, on 1% MS media. […] For norflurazone treatments, norflurazone (Chem Service) dissolved in DMSO was diluted to a final concentration of 500 nM norflurazone in 1% MS media. For all experiments, including those performed on tomatoes and rice, plants were never exposed to DMSO concentrations that exceeded 0.1%.
# (§1) To measure lateral root capacity, the primary root apical meristem of each seedling was sterilely excised at 7 days. The plants were given 3 days to grow out lateral roots, and then each emerged lateral root was counted using a dissection microscope, as described previously (Van Norman et al., Proceedings of the National Academy of Sciences of the United States of America, 2014. 111(13): p. E1300-E1309). Luciferase activity was measured as previously described, using exposure times of 7 min (Moreno-Risueno, M. A., et al., Science, 2010. 329(5997): p. 1306-1311). WOX5^+ and EN7^+ primordia were counted using a stereo zoom microscope (Zeiss). Lateral and primary root lengths for Arabidopsis thaliana and tomato were measured using ImageJ (National Institutes of Health) software. 3D images of rice root architecture were captured using a 360° revolving platform and these images were analyzed using GiA Roots (www.giaroots.org), as described previously by Topp (2013). Primary root lengths were determined by dissecting the root and measuring the length with a ruler. Shoot mass was measured after removing the shoots and drying them for 10 days at 60° C.
# First, the effect of D15 on lateral root branching was characterized and is shown FIG. 1. […] NCEDs are a sub-group of CCDs that cleave carotenoids at the 11, 12′ positions. […] By titrating D15 to its IC50 concentration (30 μM), the lateral root capacity was measured with enhanced sensitivity (FIGS. 1A-B). To determine how D15 inhibits lateral root branching, its effect on the lateral root clock, which establishes the sites of lateral root initiation, was examined. To test this, a synthetic promoter driving luciferase (pDR5:LUC) was utilized. In control roots, luminescence intensity oscillates every six hours (FIG. 1C). Only the root cells that experience the peak oscillation intensity become competent to form lateral root pre-branch sites. […] To further characterize the effect of D15 on lateral root initiation, its effect on two stages of primordia development was determined, as marked by WOX5 (pWOX5:GFP) and EN7 (pEN7:GAL4; UAS:H2A-GFP). These lines allow visualization of the QC at stage 1 of primordia development and the endodermis at stage 3 of development, respectively. […] This further supports the lateral root clock evidence that D15 inhibits the initiation of lateral root primordia.
# LeCCD1 = conditions: in vitro; cited from earlier work
# lateral root clock = test: Lateral root clock luminescence (pDR5:LUC) and pre-branch sites; format: in vivo, Arabidopsis thaliana
# Procedure: as §1
# First, the effect of D15 on lateral root branching was characterized and is shown FIG. 1. […] By titrating D15 to its IC50 concentration (30 μM), the lateral root capacity was measured with enhanced sensitivity (FIGS. 1A-B). […]
# [1] = IC50 concentration of D15 (30 μM)
compound,measurement,setting,value
CC1=C(C=O)C(C)(C)CC=C1 [safranal],herbicidal effect when sprayed on plants,Arabidopsis,herbicidal effects
same,method of lethality (phenotype),Arabidopsis,changed root cell morphology
"CC1=C[C@H](O/C=C2/C(=O)O[C@@H]3c4ccccc4C[C@H]23)OC1=O [GR24, reference compound]",lateral root capacity / branching in combination with D15 (screen),Arabidopsis thaliana,further decreased
CC(=O)/C=C/C=C(\C)CCC=C(C)C [pseudoionone],herbicidal effect when sprayed on plants,Arabidopsis,herbicidal effects
same,method of lethality (phenotype),Arabidopsis,caused plants to become chlorotic
N-(4-fluorobenzyl)-methoxycinnamic hydroxamic acid [D15],lateral root length,"Heinz tomatoes; Heinz tomatoes, D15 treatment",does not decrease
same,primary root length,"Heinz tomatoes; tomato, D15 treatment",decreased
same,lateral root branching,"Heinz tomatoes; tomato, p=0.99",did not have a negative effect
same,"lateral root capacity, maximum effect",Arabidopsis thaliana; 100 μM D15,completely inhibited
same,IC50,"Arabidopsis thaliana; D15 in 1% MS media, read-out: IC50 concentration for lateral root capacity",30 µM
same,decrease in number of stage 1 (WOX5) lateral root primordia,lateral root primordia; [1],approximately 50%
same,decrease in number of stage 3 (EN7) lateral root primordia,lateral root primordia; [1],approximately 50%
same,emergence of lateral root primordia compared to control roots,lateral root primordia; in vivo,did not inhibit
same,"enzyme preference, LeCCD1 compared to LeNCED1",LeCCD1,preferentially targets LeCCD1
same,peak oscillation intensity of pDR5:LUC luminescence vs control roots,lateral root clock; D15-treated roots (100 μM per FIG. 1),significantly lower
same,number of pre-branch sites,"lateral root clock; D15-treated roots, p=0.009",significantly decreased
CC1=C(C=O)C(C)CCC1 (stereo not drawn),herbicidal effect when sprayed on plants,Arabidopsis,herbicidal effects
same,rescue of D15 inhibition of lateral root branching,Arabidopsis thaliana,did not have the capacity to rescue
"CC1=CC(=O)CC(C)(C)[C@@]1(O)/C=C/C(C)=C\C(=O)O [ABA, abscisic acid, reference compound]",lateral root capacity / branching in combination with D15 (screen),Arabidopsis thaliana,further decreased
CC(=O)/C=C/C1=C(C)CCCC1(C)C [β-ionone],rescue of D15 inhibition of lateral root branching,Arabidopsis thaliana,did not have the capacity to rescue
"CNc1cnn(-c2cccc(C(F)(F)F)c2)c(=O)c1Cl [norflurazone, 4-chloro-5-(methylamino)-2-(α,α,α-trifluoro-m-tolyl)-3(2H)-pyridazinone]",primary and lateral root growth,"Heinz tomatoes; tomato, 1 μM norflurazone in media",decreased
same,"effect on lateral root development (primordia initiation, maintenance, development, emergence)",lateral root primordia; 500 nM norflurazone in media,"blocks normal lateral root development; also recorded: blocked primordia initiation as well as maintenance, post-initiation development, and emergence"
"CC1(C)CCC[C@@]2(C)OC(=O)C=C12 [DHAD, dihydroactinidiolide]",lateral root growth,Arabidopsis; 10 mM,inhibited
same,root length,Arabidopsis; 10 mM,inhibited
same,shoot mass,Arabidopsis; 10 mM,inhibited
same,lateral root capacity / branching in combination with D15 (screen),Arabidopsis thaliana,increase lateral root branching
same,rescue of D15 inhibition of lateral root branching,Arabidopsis thaliana,only partially rescue
